Laboratory results reported in the NIST ThermoML archive (doi:10.1021/je900307z).
± gives the expanded uncertainty stated by the source.

What was measured:
[1] = 101.33 kPa, Liquid; for viscosity: Capillary tube (Ostwald / Ubbelohde) method; for mass density: Vibrating tube method
[2] = molar heat capacity at constant pressure; settings: 101.33 kPa, Liquid, Small sample (50 mg) DSC
[3] = refractive index (Na D-line) (dimensionless); settings: 101.33 kPa, Liquid, Standard Abbe refractometry

Row | SMILES | viscosity ([1]; 293.15 K) [mPa·s] | mass density ([1]; 293.15 K) [kg/m3] | viscosity ([1]; 313.15 K) [mPa·s] | mass density ([1]; 313.15 K) [kg/m3] | molar heat capacity at constant pressure ([2]; 288.15 K) [J/K/mol] | molar heat capacity at constant pressure ([2]; 293.15 K) [J/K/mol] | molar heat capacity at constant pressure ([2]; 298.15 K) [J/K/mol] | molar heat capacity at constant pressure ([2]; 303.15 K) [J/K/mol] | molar heat capacity at constant pressure ([2]; 308.15 K) [J/K/mol] | molar heat capacity at constant pressure ([2]; 313.15 K) [J/K/mol] | molar heat capacity at constant pressure ([2]; 318.15 K) [J/K/mol] | molar heat capacity at constant pressure ([2]; 323.15 K) [J/K/mol] | refractive index ([3]; 293.15 K) | refractive index ([3]; 313.15 K)
1 | CC1COC(=O)O1 (configuration not stated) [4-methyl-1,3-dioxolan-2-one] | 2.778 ± 0.022 | 1204.66 ± 0.18 | 1.909 ± 0.017 | 1183.06 ± 0.17 | 166.28 ± 3.3 | 167.97 ± 3.4 | 169.48 ± 3.4 | 170.79 ± 3.4 | 172.22 ± 3.4 | 174.14 ± 3.5 | 175.87 ± 3.5 | 177.45 ± 3.5 | 1.4223 ± 0.0006 | 1.4149 ± 0.0006
2 | CCOC(=O)OCC [diethyl carbonate] | 0.817 ± 0.008 | 975.84 ± 0.3 | 0.623 ± 0.007 | 952.39 ± 0.3 | 210.2 ± 4.2 | 211.49 ± 4.2 | 212.46 ± 4.2 | 213.83 ± 4.3 | 214.89 ± 4.3 | 215.8 ± 4.3 | 218.55 ± 4.4 | 220.32 ± 4.4 | 1.3858 ± 0.0007 | 1.3764 ± 0.0007
3 | COC(=O)OC [dimethyl carbonate] | 0.629 ± 0.006 | 1069.8 ± 0.37 | 0.494 ± 0.005 | 1043.25 ± 0.35 | 165.51 ± 3.3 | 166.07 ± 3.3 | 167.1 ± 3.3 | 168.48 ± 3.4 | 169.72 ± 3.4 | 170.83 ± 3.4 | 172.18 ± 3.4 | 173.68 ± 3.5 | 1.3689 ± 0.0006 | 1.3604 ± 0.0006
